Assay results as given in PMC4650713, “Crystal structure of Bax bound to the BH3 peptide of Bim identifies important contacts for interaction” (Cell Death & Disease, 2015).
Where no end group is shown, it is not given here.

Tests used:
BaxΔC21 [1] = test: Core/latch dimer formation of BaxΔC21 with CHAPS and BH3 peptide, analysed by SEC; format: biochemical; settings: BaxΔC21 2 mg/ml, twofold molar excess of peptide, 1% CHAPS, 1 h at room temperature
full-length Bax = test: Liposome permeabilisation (carboxy-fluorescein release) by full-length Bax in response to BH3 peptides; format: biochemical; settings: liposomes 4 μg/ml, 50 nM full-length Bax, 500 nM BH3 peptide, 1 h at RT; three independent experiments
Protocol: The suspension was extruded through a 100 nm pore size membrane and then passed over a PD10 column to remove unincorporated dye. Liposomes at 4 μg/ml were incubated with 50 nM full-length Bax and 500 nM BH3 peptide in SUV buffer for 1 h at RT. Fluorescence of released self-quenching 5(6)-carboxy-fluorescein was measured with an excitation wavelength of 485 nm and emission wavelength of 535 nm.

BaxΔC21 [2] = target: T1, BaxΔC21 (Homo sapiens, UniProt Q07812, C126S/C62S); test: Bax binding assay: SPR, BH3 peptides displacing BaxΔC from a BimBH3 chip; settings: SPR competition, 0.5% octylglucoside
T1 construct: made in house; host or cells: Escherichia coli BL21(DE3) or ER2566
T1 sequence (Q07812 1-171 C62S/C126S): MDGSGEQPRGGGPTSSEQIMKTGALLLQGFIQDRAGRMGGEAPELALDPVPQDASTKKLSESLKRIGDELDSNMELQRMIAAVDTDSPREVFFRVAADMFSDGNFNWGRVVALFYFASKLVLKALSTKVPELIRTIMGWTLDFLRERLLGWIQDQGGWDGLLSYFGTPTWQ
Protocol: Bax binding assays were performed using a protocol modified from that described previously.[18] […] IC50 values were calculated with GraphPad Prism (GraphPad Software, La Jolla, CA, USA).

[3] = tested on: mitochondria isolated from Bak−/− Bax−/− mouse embryonic fibroblasts (MEFs) ectopically expressing BaxS184L; test: Cytochrome c release from isolated mitochondria; format: cell-based; settings: immunoblot of supernatant and pellet, representative of two independent experiments
Protocol: To test whether this change in binding affinity influenced apoptotic activity, we assessed the ability of each peptide to induce cytochrome c release from mitochondria isolated from Bak^−/− Bax^−/− mouse embryonic fibroblasts (MEFs) ectopically expressing the mitochondrially targeted Bax variant BaxS184L.[28]
BaxS184L was stably expressed in Bax^−/− Bak^−/− MEFs and cytochrome c release assays were performed as described for Bak.[23] Supernatant and pellet fractions were separated and analysed for cytochrome c by immunoblotting.

“SESQEDIIRNIARHLRQVGDSMDRSIPPGLVNGL [BidBH3 A91R]” was tested, and the “ability to trigger core/latch dimer formation of BaxΔC21” value (BaxΔC21 [1]) was “largely unaffected”, the “capacity to activate Bax in liposome permeabilisation assay” value (full-length Bax) was “enhanced activity over BidBH3” and the “binding to BaxΔC21 in the SPR assay” value (BaxΔC21 [2]) was “behaved similar to BimBH3”. The “potency at releasing cytochrome c from mitochondria” value [3] was “at best a marginally more effective than BidBH3”.
